ChEMBL document CHEMBL1201862, “PubChem BioAssay data set” (2004)
The source made the active and inactive calls. Rule as the data show it, for most assays here: actives have a measured EC50 and inactives only a lower limit.

Experiments:
[1] = target: Melanin-concentrating hormone receptor 1 (Homo sapiens, UniProt Q99705); test: Fluorescence-based counterscreen for antagonists of the G-protein coupled receptor 7 (GPR7): cell-based high throughput dose response assay to identify antagonists of the melanin-concentrating hormone receptor 1 (MCHR1).; assay type: functional
Chain of Melanin-concentrating hormone receptor 1 (Q99705 whole entry): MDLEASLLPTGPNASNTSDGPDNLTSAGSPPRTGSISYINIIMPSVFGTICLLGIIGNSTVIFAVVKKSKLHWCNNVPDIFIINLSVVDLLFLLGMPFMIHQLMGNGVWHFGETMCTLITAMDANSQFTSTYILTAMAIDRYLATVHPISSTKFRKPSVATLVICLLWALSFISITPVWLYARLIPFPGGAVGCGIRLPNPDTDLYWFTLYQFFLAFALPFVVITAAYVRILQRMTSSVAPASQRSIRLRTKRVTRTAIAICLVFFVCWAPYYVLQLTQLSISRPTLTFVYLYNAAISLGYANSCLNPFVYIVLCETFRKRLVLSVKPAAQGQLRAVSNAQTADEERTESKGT

[2] = target: Voltage-dependent T-type calcium channel subunit alpha-1H (Homo sapiens, UniProt O95180); assay type: functional;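 also: channel activity triggered by adding a high calcium stimulation buffer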
Chain of Voltage-dependent T-type calcium channel subunit alpha-1H (O95180 whole entry): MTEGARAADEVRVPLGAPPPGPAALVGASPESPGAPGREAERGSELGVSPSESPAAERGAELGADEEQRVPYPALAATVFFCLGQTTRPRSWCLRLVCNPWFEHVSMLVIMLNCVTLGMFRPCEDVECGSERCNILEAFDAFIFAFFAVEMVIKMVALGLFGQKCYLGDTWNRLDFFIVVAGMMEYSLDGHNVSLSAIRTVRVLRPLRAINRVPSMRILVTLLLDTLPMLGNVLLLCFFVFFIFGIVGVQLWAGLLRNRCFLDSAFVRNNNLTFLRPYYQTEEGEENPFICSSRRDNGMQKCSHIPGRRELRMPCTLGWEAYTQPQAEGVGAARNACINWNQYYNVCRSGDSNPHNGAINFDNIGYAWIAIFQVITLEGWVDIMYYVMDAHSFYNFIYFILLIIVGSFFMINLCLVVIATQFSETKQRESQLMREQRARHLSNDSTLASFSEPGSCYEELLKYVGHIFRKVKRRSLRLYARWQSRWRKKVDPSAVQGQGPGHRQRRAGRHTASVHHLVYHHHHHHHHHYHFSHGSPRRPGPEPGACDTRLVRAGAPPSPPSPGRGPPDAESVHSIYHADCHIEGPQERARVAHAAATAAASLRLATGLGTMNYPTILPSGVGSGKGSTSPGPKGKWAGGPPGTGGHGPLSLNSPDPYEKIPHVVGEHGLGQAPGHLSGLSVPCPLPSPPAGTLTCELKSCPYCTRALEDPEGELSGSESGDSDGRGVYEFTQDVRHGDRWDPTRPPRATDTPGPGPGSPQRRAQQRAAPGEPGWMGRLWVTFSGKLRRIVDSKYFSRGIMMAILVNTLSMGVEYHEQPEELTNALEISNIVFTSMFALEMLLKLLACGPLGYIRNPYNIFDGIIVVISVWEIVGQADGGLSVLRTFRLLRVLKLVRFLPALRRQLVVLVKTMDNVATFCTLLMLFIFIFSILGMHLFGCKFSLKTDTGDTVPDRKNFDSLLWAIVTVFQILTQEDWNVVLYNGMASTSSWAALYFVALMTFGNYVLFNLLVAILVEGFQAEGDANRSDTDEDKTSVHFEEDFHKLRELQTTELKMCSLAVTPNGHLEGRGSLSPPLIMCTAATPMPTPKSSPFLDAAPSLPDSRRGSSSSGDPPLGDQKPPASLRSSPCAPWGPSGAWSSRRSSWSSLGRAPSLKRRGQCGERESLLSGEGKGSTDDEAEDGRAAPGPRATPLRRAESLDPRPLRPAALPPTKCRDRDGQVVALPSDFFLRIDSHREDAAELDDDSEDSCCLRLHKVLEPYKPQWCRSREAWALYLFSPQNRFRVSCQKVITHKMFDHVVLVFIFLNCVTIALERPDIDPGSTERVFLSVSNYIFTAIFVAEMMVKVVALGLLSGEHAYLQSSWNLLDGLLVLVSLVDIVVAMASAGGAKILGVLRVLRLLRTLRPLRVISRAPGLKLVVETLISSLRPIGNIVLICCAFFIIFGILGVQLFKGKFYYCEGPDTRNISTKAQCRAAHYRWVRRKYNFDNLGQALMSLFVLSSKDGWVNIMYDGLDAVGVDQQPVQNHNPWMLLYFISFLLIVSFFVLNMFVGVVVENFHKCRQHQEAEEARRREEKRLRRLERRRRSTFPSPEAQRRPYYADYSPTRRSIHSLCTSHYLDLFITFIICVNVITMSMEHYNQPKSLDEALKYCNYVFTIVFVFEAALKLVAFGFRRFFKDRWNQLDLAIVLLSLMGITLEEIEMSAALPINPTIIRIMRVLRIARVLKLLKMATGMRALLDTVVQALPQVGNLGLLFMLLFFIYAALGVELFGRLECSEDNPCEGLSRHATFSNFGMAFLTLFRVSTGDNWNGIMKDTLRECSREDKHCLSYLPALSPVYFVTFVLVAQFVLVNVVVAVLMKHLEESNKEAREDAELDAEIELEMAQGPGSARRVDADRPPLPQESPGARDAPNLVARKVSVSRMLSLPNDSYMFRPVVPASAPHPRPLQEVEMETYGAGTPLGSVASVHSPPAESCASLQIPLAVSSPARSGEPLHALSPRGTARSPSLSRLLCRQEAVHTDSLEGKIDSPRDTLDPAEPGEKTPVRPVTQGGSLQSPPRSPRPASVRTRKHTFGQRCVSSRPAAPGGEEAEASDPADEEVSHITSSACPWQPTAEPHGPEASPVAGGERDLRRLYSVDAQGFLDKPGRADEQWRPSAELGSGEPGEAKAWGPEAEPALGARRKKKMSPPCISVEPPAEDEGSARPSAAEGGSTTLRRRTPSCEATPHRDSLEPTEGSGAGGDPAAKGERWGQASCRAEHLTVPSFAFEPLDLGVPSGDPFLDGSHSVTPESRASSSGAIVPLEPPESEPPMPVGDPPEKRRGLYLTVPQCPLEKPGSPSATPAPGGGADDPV

[3] = luciferase reporter signal suppression in cells – H4 neuroglioma cells, luminescence, dose response (AID 1990); assay type: functional, cell-based
[4] = Luminescence Cell-Based Dose Response HTS to Identify Inhibitors of 5'UTR Stem-Loop Driven Prion Protein mRNA Translation in H4 Neuroglioblastoma Cells. [Related pubchem assays: 1827 (Project Summary), 1813 (Primary HTS)]; assay type: functional
[5] = alpha-synuclein stem-loop luciferase translation blockers – H4 neuroglioma cells, luminescence, confirmation (AID 1988); assay type: functional, cell-based
[6] = target: T1, Aminopeptidase N (Plasmodium falciparum FcB1/Columbia, UniProt O96935); test: malaria alanyl aminopeptidase activity blockers – biochemical, fluorogenic H-Leu-NHMec substrate, 1536-well (AID 1445); parameters: species or system Plasmodium falciparum 3D7, 3D7
T1 sequence (O96935 whole entry): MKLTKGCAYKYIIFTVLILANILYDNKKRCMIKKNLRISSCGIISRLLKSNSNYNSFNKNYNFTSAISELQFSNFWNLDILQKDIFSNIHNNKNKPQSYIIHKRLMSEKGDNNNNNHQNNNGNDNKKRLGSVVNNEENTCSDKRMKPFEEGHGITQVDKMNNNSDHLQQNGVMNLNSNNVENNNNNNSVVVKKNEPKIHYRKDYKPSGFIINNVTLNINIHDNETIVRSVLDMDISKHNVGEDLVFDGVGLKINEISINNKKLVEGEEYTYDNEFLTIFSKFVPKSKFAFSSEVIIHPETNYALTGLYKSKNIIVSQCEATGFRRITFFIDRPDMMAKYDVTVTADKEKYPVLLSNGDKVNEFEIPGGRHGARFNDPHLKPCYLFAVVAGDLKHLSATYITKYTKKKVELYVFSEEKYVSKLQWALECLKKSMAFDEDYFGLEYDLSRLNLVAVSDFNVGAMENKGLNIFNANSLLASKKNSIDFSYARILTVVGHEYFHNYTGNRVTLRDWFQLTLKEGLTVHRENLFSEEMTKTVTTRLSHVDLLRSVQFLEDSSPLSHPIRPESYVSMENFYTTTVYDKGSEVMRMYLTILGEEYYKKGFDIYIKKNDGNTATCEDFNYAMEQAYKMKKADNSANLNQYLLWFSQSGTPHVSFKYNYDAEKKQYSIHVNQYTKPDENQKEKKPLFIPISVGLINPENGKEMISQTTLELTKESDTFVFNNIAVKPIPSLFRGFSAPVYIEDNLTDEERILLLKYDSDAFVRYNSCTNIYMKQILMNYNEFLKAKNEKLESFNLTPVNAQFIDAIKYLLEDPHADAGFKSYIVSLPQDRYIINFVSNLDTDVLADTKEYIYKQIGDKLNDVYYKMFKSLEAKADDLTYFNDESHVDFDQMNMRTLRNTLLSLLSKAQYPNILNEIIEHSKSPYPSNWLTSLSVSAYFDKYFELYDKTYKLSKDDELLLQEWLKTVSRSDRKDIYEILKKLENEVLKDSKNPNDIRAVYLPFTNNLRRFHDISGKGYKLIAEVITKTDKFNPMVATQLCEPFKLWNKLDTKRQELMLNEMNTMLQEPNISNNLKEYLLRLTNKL

[7] = Trypanosoma cruzi growth suppression in host cells – NIH3T3 host cells, beta-gal luminescence, confirmation (AID 2044); assay type: functional, cell-based;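 also: intracellular parasites grown in NIH/3T3 mouse fibroblasts as host cells; luminescent beta-galactosidase reporter signal from transgenic T. cruzi replicating inside host cells; inhibitors lower the luminescence signal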
[8] = NIH3T3 cell viability loss – ATP luminescence, mouse fibroblasts, counter-screen, dose response (AID 2010); assay type: functional, cell-based;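 also: cells exposed to compound for about 90 hours before reading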
[9] = target: T2, Ubiquitin-conjugating enzyme E2 N (Homo sapiens, UniProt P61088); assay type: functional;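 also: Dose-response confirmation in a TR-FRET assay detecting UBC13-driven polyubiquitin chain formation, inhibition measured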
T2 sequence (P61088 whole entry): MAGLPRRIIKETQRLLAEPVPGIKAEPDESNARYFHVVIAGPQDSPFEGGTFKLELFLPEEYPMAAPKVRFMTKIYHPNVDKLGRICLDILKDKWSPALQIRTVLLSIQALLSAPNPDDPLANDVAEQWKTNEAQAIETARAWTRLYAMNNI

[10] = luciferase reporter signal reduction – luminescence, H4-C neuroglioblastoma cells, dose response (AID 2458); assay type: functional, cell-based;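 also: H4 neuroglioblastoma cells stably carrying a luciferase reporter gene fusion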
[11] = system: BJ; test: BJ-TERT fibroblast viability loss – cell-based, RAS-independent, luminescence, dose response (AID 1933); assay type: functional; settings: Homo sapiens
[12] = cells; assay type: functional, cell-based
[13] = system: BJ; test: cells; assay type: functional, cell-based; settings: Homo sapiens
[14] = system: BJ; test: BJ-TERT-LT-ST fibroblast viability loss – cell-based, RAS-independent, luminescence, dose response (AID 1935); assay type: functional; settings: Homo sapiens;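 also: BJ fibroblasts immortalized with TERT plus LT and ST oncogenes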
[15] = DRD fibroblast viability loss – cell-based, non-viral oncogenic, luminescence, dose response (AID 1934); assay type: functional; settings: Homo sapiens
[16] = alpha-synuclein stem-loop translation blockers – luminescence, H4 neuroglioblastoma cells, dose confirmation, confirmation (AID 2454); assay type: functional, cell-based;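 also: H4 neuroglioblastoma cells carrying an alpha-synuclein 5'UTR luciferase reporter; potency for inhibition of the luciferase signal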
[17] = target: DNA dC->dU-editing enzyme APOBEC-3A (Homo sapiens, UniProt P31941); test: A3A deaminase inhibition for selectivity – biochemical, dose response (AID 504722); assay type: functional
Chain of DNA dC->dU-editing enzyme APOBEC-3A (P31941 whole entry): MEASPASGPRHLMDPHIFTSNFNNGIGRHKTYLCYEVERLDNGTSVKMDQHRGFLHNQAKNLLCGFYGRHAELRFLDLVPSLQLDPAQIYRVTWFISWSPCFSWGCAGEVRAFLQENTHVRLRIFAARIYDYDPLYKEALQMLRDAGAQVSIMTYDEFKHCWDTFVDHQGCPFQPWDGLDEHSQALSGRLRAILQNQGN

[18] = target: DNA dC->dU-editing enzyme APOBEC-3G (Homo sapiens, UniProt Q9HC16); test: Dose Response confirmation of small molecule APOBEC3G DNA Deaminase Inhibitors via a fluorescence-based single-stranded DNA deaminase assay. [Related pubchem assays (depositor defined):AID493012, AID493028]; assay type: functional
Chain of DNA dC->dU-editing enzyme APOBEC-3G (Q9HC16 whole entry): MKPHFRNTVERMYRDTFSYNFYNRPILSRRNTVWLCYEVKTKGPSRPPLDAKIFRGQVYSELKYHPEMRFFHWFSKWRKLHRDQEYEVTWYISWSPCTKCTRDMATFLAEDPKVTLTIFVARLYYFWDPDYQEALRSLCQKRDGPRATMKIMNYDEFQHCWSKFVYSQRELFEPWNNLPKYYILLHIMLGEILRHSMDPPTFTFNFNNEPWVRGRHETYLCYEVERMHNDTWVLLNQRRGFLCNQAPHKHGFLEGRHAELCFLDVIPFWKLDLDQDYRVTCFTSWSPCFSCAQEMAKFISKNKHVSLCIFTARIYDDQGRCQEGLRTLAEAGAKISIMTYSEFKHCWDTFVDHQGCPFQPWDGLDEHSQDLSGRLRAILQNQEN

[19] = target: T3, Rac GTPase-activating protein 1 (Homo sapiens, UniProt Q9H0H5); test: blockers of MgcRacGAP-driven Rac1 GTP hydrolysis – biochemical, ADP Hunter fluorescence, primary and confirmatory, confirmation (AID 624330); assay type: functional
T3 sequence (Q9H0H5 whole entry): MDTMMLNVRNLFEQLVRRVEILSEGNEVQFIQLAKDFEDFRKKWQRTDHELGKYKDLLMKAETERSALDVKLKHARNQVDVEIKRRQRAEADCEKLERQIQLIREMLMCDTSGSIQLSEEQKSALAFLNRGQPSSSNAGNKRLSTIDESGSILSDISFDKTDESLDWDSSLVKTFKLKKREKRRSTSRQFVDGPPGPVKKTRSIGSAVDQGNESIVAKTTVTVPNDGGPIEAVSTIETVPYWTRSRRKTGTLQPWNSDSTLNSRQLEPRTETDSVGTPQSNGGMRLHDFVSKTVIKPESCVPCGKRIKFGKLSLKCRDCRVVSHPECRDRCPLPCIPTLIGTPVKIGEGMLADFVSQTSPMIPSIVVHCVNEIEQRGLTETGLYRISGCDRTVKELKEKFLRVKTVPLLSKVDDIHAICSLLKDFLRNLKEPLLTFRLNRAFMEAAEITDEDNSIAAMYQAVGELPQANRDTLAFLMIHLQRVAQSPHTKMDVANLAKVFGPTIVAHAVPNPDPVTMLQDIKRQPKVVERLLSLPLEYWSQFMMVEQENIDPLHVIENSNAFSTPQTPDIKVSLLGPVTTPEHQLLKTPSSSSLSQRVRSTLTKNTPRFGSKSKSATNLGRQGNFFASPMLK

[20] = A cytotoxicity screen of small molecule inhibitors of the PhoP region in Salmonella typhi identified in the primary screen. [Related pubchem assays: 1850, 1864, 1985 ]; assay type: functional

In the case of `O=C(c1ccco1)N1CCN(S(=O)(=O)c2ccc(S(=O)(=O)NC3CCCCC3)cc2)CC1`, the IC50 [1] is reported as 23.8 µM (not active).
For `Cc1ccccc1NC(NC(=O)c1cccs1)C(Cl)(Cl)Cl` (stereo not given), the EC50 [2] was 5.15 µM (active).
In the case of `CCOc1ccccc1NC(=O)C1CCCN(S(=O)(=O)c2ccc(OC)c(C)c2)C1` (stereo not given), the EC50 [2] is reported as 13.6 µM (active).
For `Cc1nc2cc(-c3ccccc3)nn2c(C)c1CCC(=O)N1CCN(c2ccccc2)CC1`, the EC50 [3] was 16.6 µM (active), the EC50 [4] was 13.6 µM (active) and the EC50 [5] was 16.1 µM (active). For the same molecule, the EC50 [2] was 4.59 µM (active).
For `C/C(Cl)=C\Cn1c(O)c(/N=N/C(=N)S)c2ccccc21`, the IC50 [6] was 63.5 µM (active), the EC50 [7] was 1.2 µM (active) and the EC50 [8] was > 30 µM (not active). For the same molecule, the IC50 [9] was > 20 µM (inactive).
In the case of `Cc1ccc(NC(=O)CSc2nc3ccccc3c3nc4ccccc4n23)cc1`, the EC50 [3] is reported as 0.142 µM (active), the EC50 [10] is reported as 518 nM (active) and the EC50 [11] is reported as 1.83 µM (inconclusive). For the same molecule, the EC50 [12] was 963 nM (active), the EC50 [4] was < 0.1 µM (active) and the EC50 [5] was < 0.1 µM (active). For the same molecule, the EC50 [13] was 24.2 µM (inconclusive), the EC50 [14] was 6.66 µM (inconclusive) and the EC50 [15] was 784 nM (active). For the same molecule, the EC50 [16] was 992 nM (active).
With `COc1ccc(/C=N/n2c(S)nnc2-c2[nH]nc3c2CCC3)cc1OC` the IC50 [17] was > 100 µM (inactive), the IC50 [18] was 2.49 µM (active) and the IC50 [19] was 79.9 µM (active).
In the case of `O=C1c2ccccc2C(=O)N1CCC(c1ccccc1)c1ccco1` (stereo not given), the EC50 [20] is reported as > 50 µM (active).
